According to BindingDB's records for doi:10.7270/Q25Q4TJ1 (Burnham Center For Chemical Genomics, 2010):

These compounds were tested against Intestinal-type alkaline phosphatase (Mus musculus, UniProt P24822) (assay: PubChem AID 488874).
Sequence of Intestinal-type alkaline phosphatase (P24822 whole entry, looked up): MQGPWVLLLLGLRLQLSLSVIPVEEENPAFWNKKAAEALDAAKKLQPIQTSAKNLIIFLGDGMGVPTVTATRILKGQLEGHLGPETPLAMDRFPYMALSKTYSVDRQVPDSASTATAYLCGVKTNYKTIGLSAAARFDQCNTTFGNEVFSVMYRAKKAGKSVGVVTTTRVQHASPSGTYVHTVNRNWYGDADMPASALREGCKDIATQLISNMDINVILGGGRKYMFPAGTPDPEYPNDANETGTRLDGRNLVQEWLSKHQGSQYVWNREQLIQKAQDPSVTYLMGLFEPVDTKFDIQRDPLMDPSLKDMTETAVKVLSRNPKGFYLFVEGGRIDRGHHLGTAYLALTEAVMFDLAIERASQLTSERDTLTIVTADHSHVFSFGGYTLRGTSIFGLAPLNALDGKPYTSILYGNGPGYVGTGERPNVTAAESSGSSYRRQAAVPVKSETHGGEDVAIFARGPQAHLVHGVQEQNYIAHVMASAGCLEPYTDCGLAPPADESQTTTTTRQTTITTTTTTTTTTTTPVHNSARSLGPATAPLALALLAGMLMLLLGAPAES

Compound	IC50
C=c1[nH]n(Cc2ccccc2)c(=O)c1=Cc1ccc(N(C)C)cc1 [(4Z)-4-[[4-(dimethylamino)phenyl]methylidene]-5-methyl-2-(phenylmethyl)-3-pyrazolone]	35.1 µM
O=C(Nn1c(O)csc1=S)C(=O)Nn1c(O)csc1=S [SMR000349781]	3.84 µM
O=Nc1[nH]c(=O)c(CC(=O)c2ccccc2)nc1NO [SMR000539633]	35.5 µM
CC(N=Nc1ccccc1[N+](=O)[O-])c1ccc([N+](=O)[O-])cc1 (stereo not given)	> 100 µM
O=C(O)[C@H]1O[C@@H](Oc2c(-c3ccc(O)c(O)c3)oc3cc(O)cc(=O)c-3c2O)[C@H](O)[C@@H](O)[C@@H]1O [quercetin glucuronide]	3.29 µM
CCOC(=O)c1c(C)[nH]c(C(=O)N/N=C/C2C=C([N+](=O)[O-])C=CC2=O)c1C (stereo not given) [ethyl 2,4-dimethyl-5-[[[(E)-(3-nitro-6-oxocyclohexa-2,4-dien-1-ylidene)methyl]amino]carbamoyl]-1H-pyrrole-3-carboxylate]	> 100 µM
Cc1c(C(=O)NN=Cc2ccc(O)cc2O)[nH][nH]c1=O	> 100 µM
O=c1c2ccccc2nc(N=NCc2c(O)ccc3ccccc23)n1O [SMR000145705]	75.3 µM
CCOC1=CC(=Cc2c(C)[nH]oc2=O)C=C(Br)C1=O [4-[(Z)-(3-bromo-5-ethoxy-4-oxo-1-cyclohexa-2,5-dienylidene)methyl]-3-methyl-2H-isoxazol-5-one]	33.1 µM
Cc1cc(Br)ccc1SCC(=O)OCC(=O)C(C#N)c1nc2ccccc2[nH]1 (stereo not given) [2-[(4-bromo-2-methylphenyl)thio]acetic acid [3-cyano-3-(1,3-dihydrobenzimidazol-2-ylidene)-2-oxopropyl] ester]	> 100 µM
